Assay results: ChEMBL document CHEMBL1201862, “PubChem BioAssay data set” (2004)
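Five compound concentrations were applied to cells in 96-well plates for 48 hours; endpoints were derived by simple linear interpolation of the resulting dose-response curve. GI50 marks 50% less growth.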 Calls of active or inactive are those of the source. Cut-off read from the data, not from the text of the source: active = GI50 up to about 1.1 µM and inactive = higher.

How the values were obtained:
Assay in all cases: DTP human tumour cell line panel, 48 h
ACHN = test system: ACHN
DU-145 = test system: DU-145
HCT-116 = test system: HCT-116
HL-60 = test system: HL-60
HOP-62 = test system: HOP-62
HT-29 = test system: HT-29
Hs-578T = test system: Hs-578T
M14 = test system: M14
MCF7 = test system: MCF7
NCI-H226 = test system: NCI-H226
NCI-H522 = test system: NCI-H522
OVCAR-8 = test system: OVCAR-8
RPMI-8226 = test system: RPMI-8226
SK-MEL-5 = test system: SK-MEL-5
SK-OV-3 = test system: SK-OV-3
SN12C = test system: SN12C
SNB-75 = test system: SNB-75
SR = test system: SR
UACC-62 = test system: UACC-62
UO-31 = test system: UO-31

| Compound | GI50 (ACHN) | GI50 (DU-145) | GI50 (HCT-116) | GI50 (HL-60) | GI50 (HOP-62) | GI50 (HT-29) | GI50 (Hs-578T) | GI50 (M14) | GI50 (MCF7) | GI50 (NCI-H226) | GI50 (NCI-H522) | GI50 (OVCAR-8) | GI50 (RPMI-8226) | GI50 (SK-MEL-5) | GI50 (SK-OV-3) | GI50 (SN12C) | GI50 (SNB-75) | GI50 (SR) | GI50 (UACC-62) | GI50 (UO-31) |
| --- | --- | --- | --- | --- | --- | --- | --- | --- | --- | --- | --- | --- | --- | --- | --- | --- | --- | --- | --- | --- |
| C/C=C/[C@H]1O[C@@](O)([C@@H](C)[C@H](O)[C@H](C)[C@H]2OC(=O)/C(OC)=C/C(C)=C/[C@@H](C)[C@@H](O)[C@@H](CC)[C@@H](O)[C@H](C)C/C(C)=C/C=C/[C@@H]2OC)C[C@H](OC2CC(O)C(O)C(C)O2)[C@@H]1C (stereo not given in full) | < 0.0075 µM (active) | 0.256 µM (active) | < 0.0075 µM (active) | < 0.0075 µM (active) | < 0.0075 µM (active) | < 0.0075 µM (active) | < 0.0075 µM (active) | < 0.0075 µM (active) | < 0.0075 µM (active) | < 0.0075 µM (active) | < 0.0075 µM (active) | < 0.0075 µM (active) | < 0.0075 µM (active) | < 0.0075 µM (active) | 8.04 µM (inactive) | 7.78 µM (inactive) | 8.59 µM (inactive) | < 0.0075 µM (active) | < 0.0075 µM (active) | < 0.0075 µM (active) |
| O=C(N/N=C/c1ccc([N+](=O)[O-])cc1)Nc1ccc(Br)cc1 | 60.7 µM (inactive) | 47.9 µM (inactive) | 45.8 µM (inactive) | 40.5 µM (inactive) | 32.9 µM (inactive) | 97.1 µM (inactive) | > 100 µM (inactive) | 45.2 µM (inactive) | 34 µM (inactive) | > 100 µM (inactive) | 64.7 µM (inactive) | 40.9 µM (inactive) | 28.1 µM (inactive) | 51.6 µM (inactive) | 68.2 µM (inactive) | 60 µM (inactive) | > 100 µM (inactive) | 43.2 µM (inactive) | 15.3 µM (inactive) | > 100 µM (inactive) |
| O=C(N/N=C/c1ccc([N+](=O)[O-])cc1)Nc1ccc(C(=O)O)cc1 | 26.7 µM (inactive) | 29.9 µM (inactive) | 22.3 µM (inactive) | 37.2 µM (inactive) | 21.6 µM (inactive) | 23.8 µM (inactive) | 45.4 µM (inactive) | 37.4 µM (inactive) | 27.4 µM (inactive) | 22.2 µM (inactive) | 7.85 µM (inactive) | 28.6 µM (inactive) | 18.7 µM (inactive) | 16.3 µM (inactive) | 21.3 µM (inactive) | 29.9 µM (inactive) | 46.3 µM (inactive) | 43.5 µM (inactive) | 26.4 µM (inactive) | 22.1 µM (inactive) |
| O=[N+]([O-])C(=C(Sc1ccccc1)Sc1ccccc1)C(Cl)=C(Cl)Cl | 0.248 µM (active) | 1.11 µM (active) | 0.0597 µM (active) | 0.141 µM (active) | 1.91 µM (inactive) | 0.123 µM (active) | 3.32 µM (inactive) | 0.421 µM (active) | 0.21 µM (active) | 0.614 µM (active) | 0.0776 µM (active) | 0.23 µM (active) | 0.0292 µM (active) | 1.69 µM (inactive) | 10.1 µM (inactive) | 0.65 µM (active) | 4.54 µM (inactive) | 0.0975 µM (active) | 0.75 µM (active) | 0.171 µM (active) |
| O=C1C(Br)=CC2(C=C1Br)CCNC1=C2C(=O)c2cccnc2C1=O | 17 µM (inactive) | 11.4 µM (inactive) | 13.1 µM (inactive) | 3.49 µM (inactive) | 8.93 µM (inactive) | 18.2 µM (inactive) | 5.42 µM (inactive) | 8.65 µM (inactive) | 13.8 µM (inactive) | 16.6 µM (inactive) | 4.65 µM (inactive) | 15.8 µM (inactive) | 8.93 µM (inactive) | 3.77 µM (inactive) | 16.9 µM (inactive) | 12.5 µM (inactive) | 10.7 µM (inactive) | 2.93 µM (inactive) | 3.89 µM (inactive) | 17.5 µM (inactive) |
| Cc1ccc(/C=C2\CNC/C(=C\c3ccc(C)cc3)C2=O)cc1 | 2.19 µM (inactive) | 4.48 µM (inactive) | 0.313 µM (active) | 0.479 µM (active) | 2.72 µM (inactive) | 0.617 µM (active) | 1.89 µM (inactive) | 2.26 µM (inactive) | 0.513 µM (active) | 1.84 µM (inactive) | 1.87 µM (inactive) | 2.19 µM (inactive) | 0.248 µM (active) | 2.43 µM (inactive) | 2.4 µM (inactive) | 2.52 µM (inactive) | 22.9 µM (inactive) | 0.44 µM (active) | 2.04 µM (inactive) | 1.77 µM (inactive) |
| O=P(O)(O)c1ccc(-c2ccc(I)cc2)cc1 | > 100 µM (inactive) | > 100 µM (inactive) | > 100 µM (inactive) | > 100 µM (inactive) | > 100 µM (inactive) | > 100 µM (inactive) | > 100 µM (inactive) | > 100 µM (inactive) | > 100 µM (inactive) | > 100 µM (inactive) | > 100 µM (inactive) | > 100 µM (inactive) | > 100 µM (inactive) | > 100 µM (inactive) | > 100 µM (inactive) | > 100 µM (inactive) | 65 µM (inactive) | > 100 µM (inactive) | > 100 µM (inactive) | > 100 µM (inactive) |
| O=C(/C=C/c1ccc(OCC(=O)N2CCN(c3ccccc3)CC2)cc1)c1ccc(Cl)cc1 | 22.4 µM (inactive) | 51.2 µM (inactive) | 54.5 µM (inactive) | 98.2 µM (inactive) | 21.7 µM (inactive) | > 100 µM (inactive) | 21.7 µM (inactive) | 84.7 µM (inactive) | > 100 µM (inactive) | 50.8 µM (inactive) | 49.3 µM (inactive) | 45.9 µM (inactive) | > 100 µM (inactive) | 54.2 µM (inactive) | 27.5 µM (inactive) | 89.5 µM (inactive) | 12 µM (inactive) | > 100 µM (inactive) | 61.8 µM (inactive) | > 71 µM (inactive) |
| C=CCN(C(C)=O)c1cc(OCc2ccccc2)c2c(c1)c(C)cn2S(=O)(=O)c1ccccc1 | 4.36 µM (inactive) | 9.75 µM (inactive) | 3.85 µM (inactive) | 4.89 µM (inactive) | 11.5 µM (inactive) | 5.55 µM (inactive) | 7.4 µM (inactive) | 5.4 µM (inactive) | 3.93 µM (inactive) | 7.29 µM (inactive) | 4.08 µM (inactive) | 5.57 µM (inactive) | 2.47 µM (inactive) | 4.37 µM (inactive) | 16.1 µM (inactive) | 5.52 µM (inactive) | 6.18 µM (inactive) | 0.0566 µM (active) | 7.1 µM (inactive) | 2.86 µM (inactive) |
| O=C1Nc2cccc3cc(NCC(O)CCl)cc1c23 (stereo not given) | 30.3 µM (inactive) | 97.5 µM (inactive) | 33.7 µM (inactive) | > 100 µM (inactive) | 49.9 µM (inactive) | 58.7 µM (inactive) | 38 µM (inactive) | 56.1 µM (inactive) | 45.7 µM (inactive) | > 100 µM (inactive) | 59.2 µM (inactive) | 48.9 µM (inactive) | > 100 µM (inactive) | 49.8 µM (inactive) | 28.6 µM (inactive) | 41.8 µM (inactive) | 25.4 µM (inactive) | 11.7 µM (inactive) | 49.9 µM (inactive) | 31.3 µM (inactive) |
